What is called Ki is a measure of affinity in units of concentration, obtained from inhibition or displacement.

Assay [1] concerns the target rat 5-HT7a receptor (Rattus norvegicus, UniProt P32305). Nature of the assay: Affinity for 5-HT7 receptor binding sites, radioligand binding with [3H]5-CT. The settings on record: membranes of HEK-293 cells with rat 5-HT7a, 1 nM [3H]5-CT. The protocol: The affinity of the compounds described in this invention for the 5-HT7 receptor binding site was evaluated by single competition radioligand binding assay. The assay was performed on membranes prepared from HEK-293 cells that had been subjected to stable transfection with the rat 5-HT7a receptor (GB: NM022938). Cells were scraped from the culture plates, suspended in Tris-HCl 50 mM pH 7.5 and collected through centrifugation (1000 rpm for 5 min). The cell pellets were homogenized (Polytron, 15 s, setting 5) in 50 mM Tris-HCl (pH 7.5), 5 mM EDTA. Following centrifugation (15,000 rpm for 25 min), membranes (135 μg protein/mL) were resuspended in the same buffer and incubated for 60 min at RT with 1 nM [^3H]5-CT in the presence of increasing concentration of test compounds. Nonspecific binding was defined in the presence of 10 μM 5-HT. Incubation was stopped by rapid filtration using the cell harvester (Packard). Radioactivity was counted in a TopCount-NXT (Packard). Experiments were conducted in triplicate.

For assay [2], the target named is 5-HT2B receptor (Homo sapiens, UniProt P41595). The assay is described as follows: Affinity for 5HT2 receptor binding sites, h5-HT2B, [3H]mesulergine. The settings on record: CHO h5-HT2B membranes.
For assay [3], the target named is T1, human recombinant 5-HT2C receptor (Homo sapiens, UniProt P28335).
T1 sequence (P28335 33-458): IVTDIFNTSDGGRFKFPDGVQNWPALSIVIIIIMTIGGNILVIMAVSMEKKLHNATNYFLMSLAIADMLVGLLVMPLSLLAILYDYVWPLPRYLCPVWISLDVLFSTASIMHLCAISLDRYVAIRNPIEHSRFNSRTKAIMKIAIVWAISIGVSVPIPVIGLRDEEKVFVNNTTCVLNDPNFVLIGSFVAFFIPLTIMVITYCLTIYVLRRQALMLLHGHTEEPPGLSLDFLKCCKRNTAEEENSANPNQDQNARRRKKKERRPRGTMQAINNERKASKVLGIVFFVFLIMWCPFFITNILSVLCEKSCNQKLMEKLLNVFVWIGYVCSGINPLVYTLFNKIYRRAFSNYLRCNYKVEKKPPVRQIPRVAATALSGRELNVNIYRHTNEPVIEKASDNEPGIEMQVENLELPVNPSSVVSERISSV
The assay is described as follows: Affinity for 5HT2 receptor binding sites, h5-HT2C, [3H]mesulergine. The settings on record: CHO h5-HT2C membranes.
Protocol: (§1) Sigmoidal inhibition curves were generated and fitted by nonlinear regression analysis (GraphPad Prism).
Receptor binding was performed using the human recombinant 5-HT2A (GB: X57830), 5-HT2B (GB: Z36748) and 5-HT2C (GB: M81778) receptors. The affinity of the compounds for the 3 different human 5-HT2 receptor subtypes was evaluated by competitive radioligand binding assays using [^3H]ketanserin (h5-HT2A) or [^3H]mesulergine (h5-HT2B and h5-HT2C). The assays were performed on membranes prepared from NIH3T3 stably transfected with h5-HT2A or CHO stably transfected with h5-HT2B and h5-HT2C.

Assay [4] deals with 5-HT2A receptor (Homo sapiens, UniProt P28223). Nature of the assay: Affinity for 5-HT2A receptor binding sites, radioligand binding with [3H]ketanserin. The conditions noted are these: read-out: Ki 5-HT2A, rat cortex membranes (assay 2) or NIH3T3 h5-HT2A membranes (assay 3), table does not say which.
Protocol: as §1
The affinity of the compounds for the rat 5-HT2A receptor was evaluated by competitive radioligand binding assay using [^3H]ketanserine as the radioligand. […] Brain tissue (rat cortex) was homogenized in 20 volumes per wet weight tissue of Tris-HCl buffer (50 mM, pH 7.4). The total membrane fraction was collected by centrifugation and washed by subsequent centrifugation runs (25 min at 25,000 g at 4° C.). Membranes were re-suspended in Tris-HCl buffer (50 mM, pH 7.4) containing 1 nM [^3H]ketanserin. Non-specific binding was estimated in the presence of 10 μM risperidone. The incubation was terminated by rapid filtration over Whatman GF/B filters pre-soaked in 0.1% polyethylenimine, and one washing step with 1 mL ice-cold Tris-HCl buffer, pH 7.4.

Structures can show the parent of a compound that is named as a salt.

Sequence of 5-HT2B receptor (P41595 whole entry): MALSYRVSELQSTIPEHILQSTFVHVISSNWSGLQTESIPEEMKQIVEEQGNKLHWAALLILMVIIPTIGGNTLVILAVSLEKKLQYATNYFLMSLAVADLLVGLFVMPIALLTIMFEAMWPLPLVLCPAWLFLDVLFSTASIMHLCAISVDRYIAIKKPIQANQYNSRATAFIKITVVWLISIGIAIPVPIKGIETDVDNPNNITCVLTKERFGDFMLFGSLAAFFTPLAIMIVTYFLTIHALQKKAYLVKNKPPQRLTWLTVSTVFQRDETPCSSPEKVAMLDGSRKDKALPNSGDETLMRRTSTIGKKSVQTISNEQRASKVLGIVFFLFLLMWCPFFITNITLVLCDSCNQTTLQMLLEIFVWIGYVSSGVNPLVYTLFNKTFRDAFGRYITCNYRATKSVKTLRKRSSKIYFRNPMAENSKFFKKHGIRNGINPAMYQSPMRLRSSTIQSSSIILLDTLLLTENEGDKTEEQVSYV
Sequence of rat 5-HT7a receptor (P32305 whole entry): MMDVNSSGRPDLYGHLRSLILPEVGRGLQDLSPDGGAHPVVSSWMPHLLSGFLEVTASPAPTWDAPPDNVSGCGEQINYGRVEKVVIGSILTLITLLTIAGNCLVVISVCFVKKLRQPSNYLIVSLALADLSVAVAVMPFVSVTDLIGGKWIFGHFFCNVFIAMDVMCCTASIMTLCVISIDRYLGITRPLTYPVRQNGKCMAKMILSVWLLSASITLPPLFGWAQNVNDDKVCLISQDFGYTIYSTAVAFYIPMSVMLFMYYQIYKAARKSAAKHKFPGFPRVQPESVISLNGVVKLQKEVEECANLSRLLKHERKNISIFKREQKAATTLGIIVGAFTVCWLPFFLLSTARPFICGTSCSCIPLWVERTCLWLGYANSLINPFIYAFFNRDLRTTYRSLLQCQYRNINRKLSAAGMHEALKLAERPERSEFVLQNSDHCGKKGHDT

As to `CC(C)c1nc2c(c(-c3ccccc3)n1)CNCC2` [Example 31, 2-Isopropyl-4-phenyl-5,6,7,8-tetrahydro-pyrido[4,3-d]pyrimidine], the Ki in assay [1] was greater than 10000 nM; in assay [2], 2000 nM; in assay [3] it was greater than 10000 nM; in assay [4] it was 70 nM.
As to `CC(C)c1nc2c(c(-c3ccc(C(F)(F)F)cc3)n1)CNCC2` [Example 32, 2-Isopropyl-4-(4-trifluoromethyl-phenyl)-5,6,7,8-tetrahydro-pyrido[4,3-d]pyrimidine], the inhibitory constant (Ki) is greater than 10000 nM in assay [1], greater than 10000 nM in assay [2], greater than 10000 nM in assay [3] and 2000 nM in assay [4].
Consider `CC(C)c1nc2c(c(-c3ccccc3Oc3ccccc3)n1)CNCC2` [Example 33, 2-Isopropyl-4-(2-phenoxy-phenyl)-5,6,7,8-tetrahydro-pyrido[4,3-d]pyrimidine], for which the Ki in assay [1], in assay [2], in assay [3] and in assay [4] was greater than 10000 nM each time.
Consider `CC(C)Cc1nc2c(c(-c3ccsc3)n1)CNCC2` [Example 34, 2-Isobutyl-4-thiophen-3-yl-5,6,7,8-tetrahydro-pyrido[4,3-d]pyrimidine], for which the Ki in assay [1] was greater than 10000 nM; in assay [2], 400 nM; in assay [3], 1000 nM; in assay [4], 150 nM.
The matching figures for `CC(C)Cc1nc2c(c(-c3cccs3)n1)CNCC2` [Example 35, 2-Isobutyl-4-thiophen-2-yl-5,6,7,8-tetrahydro-pyrido[4,3-d]pyrimidine]: 500 nM, 400 nM, 2000 nM and 70 nM.
The matching figures for `CC(C)Cc1nc2c(c(-c3ccncc3)n1)CNCC2` [Example 36, 2-Isobutyl-4-pyridin-4-yl-5,6,7,8-tetrahydro-pyrido[4,3-d]pyrimidine]: greater than 10000 nM, greater than 10000 nM, greater than 10000 nM and greater than 10000 nM.
The matching figures for `Cc1ccc(-c2nc(CC(C)C)nc3c2CNCC3)cc1` [Example 38, 2-Isobutyl-4-p-tolyl-5,6,7,8-tetrahydro-pyrido[4,3-d]pyrimidine]: greater than 10000 nM, 50 nM, 800 nM and 40 nM.
With `Cc1cc(-c2nc(CC(C)C)nc3c2CNCC3)ccc1F` [Example 39, 4-(4-Fluoro-3-methyl-phenyl)-2-isobutyl-5,6,7,8-tetrahydro-pyrido[4,3-d]pyrimidine], the inhibitory constant (Ki) in assay [1] is greater than 10000 nM; in assay [2], greater than 10000 nM; in assay [3], greater than 10000 nM; in assay [4], 150 nM.
Consider `CC(C)Cc1nc2c(c(-c3ccc(C#N)cc3)n1)CNCC2` [Example 40, 4-(2-Isobutyl-5,6,7,8-tetrahydro-pyrido[4,3-d]pyrimidin-4-yl)-benzonitrile], for which the Ki in assay [1] was greater than 10000 nM; in assay [2] it was greater than 10000 nM; in assay [3], greater than 10000 nM; in assay [4], 500 nM.
On to `COc1ccc(-c2nc(CC(C)C)nc3c2CNCC3)cc1` [Example 41, 2-Isobutyl-4-(4-methoxy-phenyl)-5,6,7,8-tetrahydro-pyrido[4,3-d]pyrimidine], for which the Ki in assay [1] was greater than 10000 nM; in assay [2], 5000 nM; in assay [3], 5000 nM; in assay [4], 2000 nM.
As to `CCC(C)c1nc2c(c(-c3ccccc3F)n1)CNCC2` (stereo not drawn) [Example 42, 2-sec-Butyl-4-(2-fluoro-phenyl)-5,6,7,8-tetrahydro-pyrido[4,3-d]pyrimidine hydrochloride], the inhibition constant Ki in assay [1] is greater than 10000 nM; in assay [2], greater than 10000 nM; in assay [3] it was greater than 10000 nM; in assay [4] it was 120 nM.
For the compound `CCC(C)c1nc2c(c(-c3cccc(F)c3)n1)CNCC2` (stereo not drawn) [Example 43, 2-sec-Butyl-4-(3-fluoro-phenyl)-5,6,7,8-tetrahydro-pyrido[4,3-d]pyrimidine], the Ki is greater than 10000 nM in assay [1], greater than 10000 nM in assay [2], greater than 10000 nM in assay [3] and 200 nM in assay [4].

These data come from US7598255B2 (Janssen Pharmaceutica NV, priority 2005, dated 2009).
